Among the test systems are K-562 leukemia; LOX IMVI melanoma; NCI-H460 lung; RPMI-8226 leukemia; SN12C renal; SNB-19 CNS; SW-620 colon; UACC-62 melanoma; HOP-92 NSCLC; CCRF-CEM leukemia.
What all share (test): NCI-60 cell line screen, 48 h

“And” between values parts separate entries of the source, which are not always exact repeats. Equal values may be shown once.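 Values below derive from 48-hour exposures of cells grown in 96-well plates, with endpoints linearly interpolated between the two concentrations bracketing the appropriate inhibition level. GI50: concentration for 50% inhibition of growth. TGI denotes the concentration required for complete inhibition of growth.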 Some results are limits rather than exact numbers.

Regarding `CCCC(CCC)C(=O)OCC1(CO)C/C(=C\c2ccc(C(F)(F)F)cc2)C(=O)O1` (centres undefined), the GI50 in the assay with K-562 leukemia was 0.823 µM; in the assay with LOX IMVI melanoma, 10 µM; with NCI-H460 lung it was 3.04 µM; in the assay on RPMI-8226 leukemia, 10.7 µM; in the assay on SN12C renal, 11.9 µM; in the assay with SNB-19 CNS it was 16.8 µM. Moreover, the GI50 with SW-620 colon is 8.64 µM; with UACC-62 melanoma, 11 µM. Moreover, the TGI was determined as 20.6 µM in the assay with K-562 leukemia; 22.8 µM with LOX IMVI melanoma; 21.7 µM with NCI-H460 lung; 26.9 µM in the assay with RPMI-8226 leukemia; 25.7 µM in the assay on SN12C renal; 30.6 µM in the assay with SNB-19 CNS. Further, the TGI came out at 21.8 µM in the assay on SW-620 colon and 27.1 µM in the assay on UACC-62 melanoma.

For `CCCCCCCCCCCCCCCCCc1nnc(N)o1`, the TGI in the assay on HOP-92 NSCLC, in the assay with K-562 leukemia, with LOX IMVI melanoma, in the assay on NCI-H460 lung, with RPMI-8226 leukemia and in the assay on SN12C renal was above 100 µM throughout. Further, the TGI in the assay on SNB-19 CNS, with SW-620 colon and in the assay with UACC-62 melanoma was above 100 µM each time.

For the compound `O=c1[nH]c2c(c3ccccc13)CCc1ccccc1-2`, the TGI in the assay on K-562 leukemia, with RPMI-8226 leukemia, in the assay on SN12C renal, in the assay on SNB-19 CNS and in the assay on SW-620 colon was above 100 µM in each case.

`N#CC(C(=O)CCC(=O)Nc1ccc(Cl)c(Cl)c1)c1ccc(Cl)cc1` (centres undefined): the TGI in the assay on HOP-92 NSCLC is above 100 µM; in the assay with K-562 leukemia, 90.5 µM; in the assay on LOX IMVI melanoma, above 100 µM; in the assay with NCI-H460 lung, above 100 µM; with RPMI-8226 leukemia, above 100 µM; with SN12C renal it was above 100 µM. The TGI with SNB-19 CNS, in the assay with SW-620 colon and in the assay on UACC-62 melanoma was above 100 µM in each case.

For the compound `NC(=O)N/N=C(\CCC(=O)N(Cc1ccccc1)Cc1ccccc1)CC(=O)c1ccc(F)cc1`, the TGI in the assay with CCRF-CEM leukemia, with K-562 leukemia, in the assay with LOX IMVI melanoma, with NCI-H460 lung, in the assay on SN12C renal and in the assay on SNB-19 CNS was above 100 µM throughout. Also, the TGI in the assay on SW-620 colon and in the assay with UACC-62 melanoma was above 100 µM throughout.

With `c1ccc2c(CN3CCC(C4CCN(Cc5cccc6ccccc56)CC4)CC3)cccc2c1`, the GI50 in the assay with CCRF-CEM leukemia was 13.7 µM and 4 µM; with LOX IMVI melanoma, 4.33 µM and 10.2 µM; in the assay on SNB-19 CNS, 40.1 µM and > 100 µM; with SW-620 colon, 3.02 µM and 11.4 µM. Moreover, the TGI in the assay with CCRF-CEM leukemia was 65.3 µM and > 31.6 µM; with HOP-92 NSCLC it was 12 µM and 32.9 µM; with LOX IMVI melanoma, 16.8 µM and 23.4 µM; with NCI-H460 lung, 52.4 µM and 46.8 µM; in the assay on RPMI-8226 leukemia it was 15 µM and 10.9 µM; with SN12C renal, above 100 µM. In addition, the TGI in the assay with SNB-19 CNS was above 100 µM; with SW-620 colon, 9.17 µM and 40.1 µM; in the assay with UACC-62 melanoma, 17.5 µM and 20.9 µM.

`Nc1ccc(C2=Nc3ccccc3SC(c3ccccc3O)C2)cc1` (centres undefined): the TGI is 32.5 µM with CCRF-CEM leukemia; 51.6 µM in the assay on K-562 leukemia; above 100 µM in the assay on LOX IMVI melanoma; above 100 µM in the assay on NCI-H460 lung; 49.7 µM in the assay with RPMI-8226 leukemia; above 100 µM in the assay with SN12C renal. Besides, the TGI in the assay on SNB-19 CNS, in the assay on SW-620 colon and in the assay on UACC-62 melanoma was above 100 µM each time.

Take `COC1C(O)C(C)OC(O[C@@H]2C[C@H]3CC[C@@H]4[C@H](CC[C@]5(C)[C@@H](C6=CC(=O)OC6)CC[C@]45O)[C@@]3(C)[C@H](O)C2)C1O` (some centres undefined): the TGI in the assay on CCRF-CEM leukemia is above 100 µM; with HOP-92 NSCLC it was above 100 µM; in the assay with K-562 leukemia, 0.457 µM; in the assay with LOX IMVI melanoma, 0.233 µM; in the assay with NCI-H460 lung it was 0.0222 µM; in the assay on RPMI-8226 leukemia, 0.0725 µM. Also, the TGI in the assay on SN12C renal was 0.0591 µM; with SNB-19 CNS it was 1.26 µM; in the assay with UACC-62 melanoma, 0.647 µM.

Take `NS(=O)(=O)c1ccc(N2N=C(c3cccs3)CC2c2ccccc2O)cc1` (centres undefined): the GI50 in the assay with CCRF-CEM leukemia is 1.4 µM; in the assay on K-562 leukemia, 1.24 µM; with LOX IMVI melanoma, 1.25 µM; in the assay with NCI-H460 lung it was 1.16 µM; in the assay on RPMI-8226 leukemia, 1.16 µM; with SN12C renal, 1.2 µM. Also, the GI50 with SNB-19 CNS is 1.23 µM; with SW-620 colon, 1.16 µM; in the assay on UACC-62 melanoma it was 1.15 µM. Besides, the TGI is above 33.3 µM in the assay with CCRF-CEM leukemia; 15.3 µM in the assay on K-562 leukemia; 5.22 µM in the assay on LOX IMVI melanoma; 4.24 µM in the assay on NCI-H460 lung; 5.29 µM with RPMI-8226 leukemia; 4.78 µM with SN12C renal. Also, the TGI with SNB-19 CNS is 11 µM; in the assay on SW-620 colon, 4.83 µM; with UACC-62 melanoma, 5.09 µM.

Regarding `Cc1cc(C)nc(NS(=O)(=O)c2ccc(NC(=O)c3cccc4c(N)c5ccccc5nc34)cc2)n1`, the TGI in the assay on CCRF-CEM leukemia, in the assay with K-562 leukemia, in the assay on LOX IMVI melanoma, with NCI-H460 lung, in the assay on RPMI-8226 leukemia and in the assay with SN12C renal was above 100 µM in each case. The TGI in the assay with SNB-19 CNS, in the assay on SW-620 colon and in the assay with UACC-62 melanoma was above 100 µM each time.

Regarding `O=c1cc(-c2ccc(O)cc2)oc2cc(O)cc(O)c12`, the TGI was above 100 µM in the assay with CCRF-CEM leukemia; 56.6 µM with HOP-92 NSCLC; above 100 µM in the assay with K-562 leukemia; 86.6 µM in the assay on LOX IMVI melanoma; above 100 µM with NCI-H460 lung; above 100 µM in the assay on RPMI-8226 leukemia. Besides, the TGI in the assay with SN12C renal, in the assay with SNB-19 CNS and in the assay on UACC-62 melanoma was above 100 µM throughout.

In the case of `O=C(NC1C=Nc2ccccc2NC1=O)c1ccccc1Cl` (centres undefined), the TGI is above 100 µM in the assay on CCRF-CEM leukemia; above 100 µM with HOP-92 NSCLC; 52.7 µM in the assay with K-562 leukemia; above 100 µM in the assay on LOX IMVI melanoma; above 100 µM in the assay with NCI-H460 lung; above 100 µM in the assay on SN12C renal. The TGI in the assay on SNB-19 CNS is above 100 µM; with SW-620 colon, 29 µM; with UACC-62 melanoma, above 100 µM.

Regarding `O=[N+]([O-])c1cc2c(ccc3occc32)o1`, the GI50 with CCRF-CEM leukemia was 1.87 µM; in the assay with K-562 leukemia, 2.14 µM; in the assay on LOX IMVI melanoma, 1.25 µM; with RPMI-8226 leukemia, 4 µM; in the assay on SN12C renal, 2.96 µM; in the assay with SNB-19 CNS, 3.78 µM. Besides, the GI50 with SW-620 colon was 3.17 µM; in the assay on UACC-62 melanoma, 1.45 µM. Also, the TGI in the assay on CCRF-CEM leukemia is 7.88 µM; in the assay with K-562 leukemia, 8.03 µM; with LOX IMVI melanoma, 3.85 µM; in the assay on RPMI-8226 leukemia it was 44.3 µM; with SN12C renal it was above 100 µM; with SNB-19 CNS, 45.9 µM. Further, the TGI in the assay with SW-620 colon was above 100 µM; with UACC-62 melanoma it was 3.41 µM.

The record behind these values is PubChem BioAssay (NCI).
